{
  "source": "paper PMC12396409",
  "about": "“Screening and hit evaluation of a microbial metabolite library against the pathogenic Plasmodium falciparum and Toxoplasma gondii parasites” (International Journal for Parasitology: Drugs and Drug …, 2025)",
  "key": {"[1]": {"system": "T. gondii RH strain (RH-Tub-eYFP) tachyzoites", "assay": "microbe, parasite or virus in culture", "type": "cell-based, Toxoplasma gondii"}, "[2]": {"system": "P. falciparum 3D7 parasites", "assay": "P. falciparum growth inhibition assay, 1-cycle (72 h treatment), SYBR DNA staining (library screen at 2 μg/mL and dose-response)", "type": "cell-based, Plasmodium falciparum"}, "[3]": {"system": "P. falciparum 3D7 parasites", "assay": "P. falciparum growth inhibition assay, 2-cycle (120 h treatment), delayed-death screen and dose-response", "type": "cell-based, Plasmodium falciparum"}, "[4]": {"conditions": "T. gondii RH, 72 h, library screen at 2 μg/mL, % growth, replicate 1"}, "[5]": {"conditions": "T. gondii RH, 72 h, library screen at 2 μg/mL, % growth, replicate 2"}, "[6]": {"conditions": "P. falciparum 3D7, 72 h, library screen at 2 μg/mL, % growth, replicate 1"}, "[7]": {"conditions": "P. falciparum 3D7, 72 h, library screen at 2 μg/mL, % growth, replicate 2"}, "[8]": {"conditions": "P. falciparum 3D7, 120 h, library screen at 2 μg/mL, % growth, replicate 1"}, "[9]": {"conditions": "P. falciparum 3D7, 120 h, library screen at 2 μg/mL, % growth, replicate 2"}, "[10]": {"conditions": "active against the parasite at 2 μg/mL, no anti-tumour (NS-1) or cytotoxic (fibroblast) activity at 5 μg/mL"}},
  "note": "Read-outs that look alike come from different tables or passages of the source.",
  "data": [
    {"molecule": "CO[C@H]1/C=C\\C=C(/C)C(=O)Nc2cc(O)cc(c2O)[C@H](OC)[C@@H](C)C[C@H](OC)[C@H](O)[C@@H](C)/C=C(\\C)[C@@H]1OC(N)=O", "note": "[TAN 420C]", "values": [
      {"measurement": "Tg_72h_%Growth_Rep1", "setting": "[1]; T. gondii, 72 h, parasite screen 2 μg/mL, % growth, replicate 1", "value": 82.44, "unit": "%"},
      {"measurement": "Tg_72h_%Growth_Rep2", "setting": "[1]; T. gondii, 72 h, parasite screen 2 μg/mL, % growth, replicate 2", "value": 97.92, "unit": "%"},
      {"measurement": "Pf_72h_%Growth_Rep1", "setting": "[2]; P. falciparum, 72 h, parasite screen 2 μg/mL, % growth, replicate 1", "value": 3.02, "unit": "%"},
      {"measurement": "Pf_72h_%Growth_Rep2", "setting": "[2]; P. falciparum, 72 h, parasite screen 2 μg/mL, % growth, replicate 2", "value": -2.54, "unit": "%"},
      {"measurement": "Pf_120h_%Growth_Rep1", "setting": "[3]; P. falciparum, 120 h, parasite screen 2 μg/mL, % growth, replicate 1", "value": 31.69, "unit": "%"},
      {"measurement": "Pf_120h_%Growth_Rep2", "setting": "[3]; P. falciparum, 120 h, parasite screen 2 μg/mL, % growth, replicate 2", "value": 5.24, "unit": "%"}
    ]},
    {"molecule": "CC(C=CC1OC(=O)C=CC1C)=CC(C)CC=CC(C)=CC(C)C(=O)C(C)C(O)C(C)CC(C)=CC(=O)O", "note": "(stereo not shown) [BIA-L1045]", "values": [
      {"measurement": "Tg_72h_%Growth_Rep1", "setting": "[1]; [4]", "value": -0.52, "unit": "%"},
      {"measurement": "Tg_72h_%Growth_Rep2", "setting": "[1]; [5]", "value": -0.11, "unit": "%"},
      {"measurement": "Pf_72h_%Growth_Rep1", "setting": "[2]; [6]", "value": 49.36, "unit": "%"},
      {"measurement": "Pf_72h_%Growth_Rep2", "setting": "[2]; [7]", "value": 24.76, "unit": "%"},
      {"measurement": "Pf_120h_%Growth_Rep1", "setting": "[3]; [8]", "value": 60.90, "unit": "%"},
      {"measurement": "Pf_120h_%Growth_Rep2", "setting": "[3]; [9]", "value": 15.41, "unit": "%"}
    ]},
    {"molecule": "C[C@@H]1C[C@H]2CC[C@H](O2)[C@H](C)C(=O)O[C@@H](C)C[C@@H]2CC[C@@H](O2)[C@@H](C)C(=O)O[C@H](C)C[C@H]2CC[C@@H](O2)[C@H](C)C(=O)O[C@@H](C)C[C@@H]2CC[C@@H](O2)[C@@H](C)C(=O)O1", "note": "[BIA-N1270]", "values": [
      {"measurement": "Tg_72h_%Growth_Rep1", "setting": "[1]; T. gondii, 72 h, parasite screen at 2 μg/mL, % growth, replicate 1", "value": 4.95, "unit": "%"},
      {"measurement": "Tg_72h_%Growth_Rep2", "setting": "[1]; T. gondii, 72 h, parasite screen at 2 μg/mL, % growth, replicate 2", "value": 0.97, "unit": "%"},
      {"measurement": "Pf_72h_%Growth_Rep1", "setting": "[2]; P. falciparum 3D7, 72 h, parasite screen at 2 μg/mL, % growth, replicate 1", "value": 6.60, "unit": "%"},
      {"measurement": "Pf_72h_%Growth_Rep2", "setting": "[2]; P. falciparum 3D7, 72 h, parasite screen at 2 μg/mL, % growth, replicate 2", "value": 4.15, "unit": "%"},
      {"measurement": "Pf_120h_%Growth_Rep1", "setting": "[3]; P. falciparum 3D7, 120 h, parasite screen at 2 μg/mL, % growth, replicate 1", "value": 46.69, "unit": "%"},
      {"measurement": "Pf_120h_%Growth_Rep2", "setting": "[3]; P. falciparum 3D7, 120 h, parasite screen at 2 μg/mL, % growth, replicate 2", "value": 11.45, "unit": "%"}
    ]},
    {"molecule": "C=C[C@]1(C)C[C@@H](OC(=O)CSCCN(CC)CC)[C@]2(C)[C@H](C)CC[C@]3(CCC(=O)[C@H]32)[C@@H](C)[C@@H]1O", "note": "[Tiamulin, reference compound]", "values": [
      {"measurement": "percent parasite growth at 2 µg/mL", "setting": "[1]; Toxoplasma gondii, 72 h, T. gondii, 72 h, screen at 2 μg/mL, replicate 1, read-out: Tg_72h_%Growth_Rep1", "value": 55.8, "unit": "%"},
      {"measurement": "percent parasite growth at 2 µg/mL", "setting": "[1]; Toxoplasma gondii, 72 h, T. gondii, 72 h, screen at 2 μg/mL, replicate 2, read-out: Tg_72h_%Growth_Rep2", "value": 29.4, "unit": "%"},
      {"measurement": "IC50", "setting": "[1]; Toxoplasma gondii, RH strain, 72 h, mean ± S.D., n ≥ 3, read-out: IC50 (μM), T. gondii (converted)", "value": "> 1", "unit": "µM"},
      {"measurement": "Screen (T. gondii)", "setting": "[1]; library screen at 2 μg/mL, RH strain, 72 h", "value": "I"},
      {"measurement": "activity at 2 µg/mL", "setting": "[2]; Plasmodium falciparum, 3D7; P. falciparum, 2 μg/mL, 72 h; read-out: 1) Growth (%) at 72 h", "value": 55, "unit": "%"},
      {"measurement": "activity at 2 µg/mL", "setting": "[2]; Plasmodium falciparum, 3D7, P. falciparum, 72 h, screen at 2 μg/mL, replicate 1, read-out: Pf_72h_%Growth_Rep1", "value": 61.3, "unit": "%"},
      {"measurement": "activity at 2 µg/mL", "setting": "[2]; Plasmodium falciparum, 3D7, P. falciparum, 72 h, screen at 2 μg/mL, replicate 2, read-out: Pf_72h_%Growth_Rep2", "value": 48.7, "unit": "%"},
      {"measurement": "IC50", "setting": "[2]; Plasmodium falciparum, 3D7, 72 h treatment, mean ± S.D., n ≥ 3, read-out: IC50 (μM), P. falciparum", "value": "> 1", "unit": "µM"},
      {"measurement": "delayed-death activity in the 120 h screen against P. falciparum", "setting": "[3]; 2 μg/mL, criteria: ≥40 % growth at 72 h, ≤20 % growth at 120 h, at least 5-fold", "value": "delayed-death activity"},
      {"measurement": "3) Fold change (72 h/120 h)", "setting": "[3]; P. falciparum, growth at 72 h / growth at 120 h, 2 μg/mL", "value": 7.0},
      {"measurement": "IC50", "setting": "[3]; Plasmodium falciparum, 3D7, read-out: IC50, P. falciparum, 120 h dose-response (delayed-death)", "value": "~1", "unit": "µM"},
      {"measurement": "activity at 2 µg/mL", "setting": "[3]; Plasmodium falciparum, 3D7; P. falciparum, 2 μg/mL, 120 h; read-out: 2) Growth (%) at 120 h", "value": 7.81, "unit": "%"},
      {"measurement": "activity at 2 µg/mL", "setting": "[3]; Plasmodium falciparum, 3D7, P. falciparum, 120 h, screen at 2 μg/mL, replicate 1, read-out: Pf_120h_%Growth_Rep1", "value": 6.75, "unit": "%"},
      {"measurement": "activity at 2 µg/mL", "setting": "[3]; Plasmodium falciparum, 3D7, P. falciparum, 120 h, screen at 2 μg/mL, replicate 2, read-out: Pf_120h_%Growth_Rep2", "value": 8.86, "unit": "%"}
    ]},
    {"molecule": "C=C1[C@@H](C)[C@H]2[C@H](Cc3ccccc3)NC(=O)[C@]23[C@H](O)/C=C/[C@](C)(O)C[C@@H](C)C/C=C/[C@H]3[C@@H]1O", "note": "[cytochalasin J]", "values": [
      {"measurement": "Tg_72h_%Growth_Rep1", "setting": "[1]; T. gondii, 72 h, screen at 2 μg/mL, replicate 1", "value": 4.83, "unit": "%"},
      {"measurement": "Tg_72h_%Growth_Rep2", "setting": "[1]; T. gondii, 72 h, screen at 2 μg/mL, replicate 2", "value": 6.80, "unit": "%"},
      {"measurement": "selectivity for T. gondii in the screens", "setting": "[1]; [10]", "value": "active selectively against P. falciparum and T. gondii"},
      {"measurement": "Pf_72h_%Growth_Rep1", "setting": "[2]; P. falciparum, 72 h, screen at 2 μg/mL, replicate 1", "value": 6.03, "unit": "%"},
      {"measurement": "Pf_72h_%Growth_Rep2", "setting": "[2]; P. falciparum, 72 h, screen at 2 μg/mL, replicate 2", "value": 6.00, "unit": "%"},
      {"measurement": "selectivity for P. falciparum in the screens", "setting": "[2]; [10]", "value": "active selectively against P. falciparum and T. gondii"},
      {"measurement": "Pf_120h_%Growth_Rep1", "setting": "[3]; P. falciparum, 120 h, screen at 2 μg/mL, replicate 1", "value": 0.52, "unit": "%"},
      {"measurement": "Pf_120h_%Growth_Rep2", "setting": "[3]; P. falciparum, 120 h, screen at 2 μg/mL, replicate 2", "value": -0.13, "unit": "%"}
    ]},
    {"molecule": "CCCC(=O)OC1C(C)OC(OC2C(C)OC(OC3C(CC=O)CC(C)C(O)C=CC=CCC(C)OC(=O)CC(O)C3OC)C(O)C2N(C)C)CC1(C)O", "note": "(stereo not shown) [BIA-L1357]", "values": [
      {"measurement": "Tg_72h_%Growth_Rep1", "setting": "[1]; [4]", "value": 30.88, "unit": "%"},
      {"measurement": "Tg_72h_%Growth_Rep2", "setting": "[1]; [5]", "value": 21.24, "unit": "%"},
      {"measurement": "Pf_72h_%Growth_Rep1", "setting": "[2]; [6]", "value": 53.81, "unit": "%"},
      {"measurement": "Pf_72h_%Growth_Rep2", "setting": "[2]; [7]", "value": 78.28, "unit": "%"},
      {"measurement": "Pf_120h_%Growth_Rep1", "setting": "[3]; [8]", "value": 3.21, "unit": "%"},
      {"measurement": "Pf_120h_%Growth_Rep2", "setting": "[3]; [9]", "value": 21.14, "unit": "%"}
    ]}
  ]
}
